Columns and labels:
5-HT2A = 5-HT2A (Homo sapiens (Human), UniProt P28223); assay: Functional agonism/antagonism, IP1 HTRF in HEK293 cells; format: cell-based
Description: These receptor targets include the 5-HT2A receptor, the functional study of which was performed at pH 7.4 (Porter, et al., Br J Pharmacol, 1999, 128:13-20; CEREP, France). […] Separate wells stimulated with 10 μM serotonin served as a positive control. […] The cells were stimulated with 100 nM serotonin.

[1] = system: MCAO model of transient ischemia in mice; assay: In vivo model of transient focal ischemia, middle cerebral artery occlusion (MCAO); set-up: species or system mouse; conditions: for infarct volume: 24 hours post reperfusion
Description: All protocols involving animals were approved by the Georgia State University IACUC, an AAALAC accredited program, and was under the supervision of a licensed veterinarian. Mice were group housed, provided nestlets and shelters with access to food pellets and water ad libitum under a 12-hour light/dark cycle. Mice were brought to a separate room and housed for at least 30 min prior to initiation of the surgery.
Mice (C57B16, >90 days old, Jackson Labs) were subjected to transient (60 min) middle cerebral artery occlusion (MCAO) and the infarct volume measured 24 hours post reperfusion, similar as previously described (Yuan, et al., Neuron, 2015, 85(6):1305-1318). Male mice were used for this experiment to reduce potential confound by progesterone variation through estrous cycles, which can have neuroprotective actions. Briefly, transient ischemia was induced in anesthetized (2% isoflurane/98% O2) mice by insertion of an intraluminal suture into the MCA for 60 minutes (Junge, et al., Proc NatlAcad Sci USA, 2003, 100: 13019-13024). The body temperature of each mouse was monitored with a rectal thermometer and maintained at 37° C. through use of a homeothermic blanket. Changes in local cerebral blood flow were monitored with a laser Doppler flowmeter probe (Perimed) secured via glue to the skull 4-6 mm lateral and 2 mm posterior of bregma. An 11-mm 5-0 Dermalon or Look (SP185) black nylon non-absorbable suture with the tip flame-rounded was introduced into the left internal carotid artery through the external carotid artery stump up to 10.5-11 mm of suture insertion. Only mice with a reduction in blood flow to <20% for 60 min and with recovery of blood flow to >90% following removal of the suture were progressed to complete the study. Following the occlusion period, mice were placed back in their cages on a warming blanket (37° C.) for several hours and monitored for righting reflex and ability to ambulate upon a gentle touch. At 24 hours post occlusion, mice were euthanized by isoflurane overdose, the brain quickly removed and cut into 2 mm sections and incubated in 2% 2,3,5-triphenyltetrazolium chloride (TTC) in phosphate buffered saline (pH 7.4) at 37° C. for 20 min, then placed at 4° C. for imaging. The infarct area was then measured using the NIH IMAGE software (Scion Corporation, Beta 4.0.2 release). The lesioned area of each section was determined by digital threshold reductions in TTC staining to ≤20% lower intensity than that observed in the contralateral cortex. The infarct region was then manually outlined with a curser and the cubic volume of the infarct determined for each slice, then summed across all four slices from each animal to obtain total infarct volume. […]

[2] = Plasma protein binding, rapid equilibrium dialysis, human; format: in vitro ADME; conditions: n=2
Description: Plasma protein binding was performed with a rapid equilibrium dialysis (RED) device containing dialysis membrane with a molecular weight cut-off of 8,000 Daltons according to the manufacturer's instructions (ThermoFisher, USA). The plasma samples (pH 7.4) and the test compound solution (1 or 5 μM) or reference standards (Warfarin and Propranolol, 10 μM) were combined (DMSO final conc 0.1%). 300 μL of this spiked plasma sample was added to the sample chamber, and 500 μL of blank PBS buffer (pH 7.4) was added into the buffer chamber. The RED device was sealed with adhesive film and then incubated at 37° C. with shaking at 300 rpm for 4 h. Following incubation, an aliquot (50 μL) was removed from each well (spiked plasma and buffer side) and diluted with equal volume of the corresponding opposite matrix (blank buffer or blank plasma) to nullify the matrix effect, and then extracted for analysis by LC-MS/MS. The amount of free material was determined by:
% Free=(LC-MS/MS peak area of test compound in buffer side/LC-MS/MS peak area of test compound in plasma side)×100%

in vivo = conditions: BALB/c, mouse, plasma
Description: Formulation for pharmacokinetic studies used 2% or 10% N′,N′-dimethylacetamide, 10% propylene glycol, and 30% 2-hydroxypropyl-beta-cyclodextrin in water and a dose volume of 10 mL/kg (all routes of administration).
Briefly, mice were administered a 2 mg/kg or a 5 mg/kg dose (n=3 each) by IP injection (10 mL/kg dose volume) and blood samples collected at 0.08, 0.25, 0.5, 1, 2, 4, 8 and 24 hours post dose in tubes containing sodium heparin on ice. 100 μL of plasma was combined with 50 μL of internal standard (haloperidol, 10 μg/mL) and tubes were then spun at 4000 g for 10 min (4° C.) and plasma transferred to clean tubes and stored at −80° C. until analysis.
Blood samples were collected on ice in sodium heparin tubes at 0.08, 0.25, 0.5, 1, 2, 4, 8, and 24 hours post dose. Samples were prepared and analyzed as described above except here the internal standard was fluconazole (10 μg/mL).

CYP3A4 = CYP3A4 (Homo sapiens (Human), UniProt P08684); assay: Cytochrome P450 inhibition (Vivid CYP blue screening kit), CYP3A4; format: in vitro ADME; conditions: 1 μM
Description: Inhibition of CYP2D6 and CYP3A4 was accomplished using recombinant human isoforms and a Vivid CYP blue screening kit (Invitrogen, USA) by incubating 2-fold serial dilutions (9 samples) of the test compound with kit reagents and reaction buffer according to the manufacturer's methods in a 96-well plate. The plate was then incubated at room temperature for 30 min before fluorescence was measured with a plate reader. For these studies, reference standards ketoconazole (CYP3A4) and quinidine (CYP2D6) were used as controls.

5-HT1D = 5-HT1D (Homo sapiens (Human), UniProt P28221); assay: Off-target radioligand binding displacement (NIMH PDSP); conditions: pH 7.4
Description: Briefly, the compound was submitted to the NIMH PDSP and screened at a single concentration (10 μM) of test article under equilibrium conditions for ability to displace specific radioligands from binding to their targets expressed in mammalian cell membranes in vitro. Each receptor target was assayed in quadruplicate and the % inhibition of radioligand binding at each target determined at pH 7.4. […]

hERG potassium channel = hERG potassium channel (Homo sapiens (Human), UniProt Q12809); assay: hERG potassium channel current, automatic patch clamp in HEK cells; format: cell-based; conditions: pH 7.4, patch clamp; read-out: Functional IC50 (μM) hERG
Description: Each test concentration was tested in two or more cells (n≥2). Duration of exposure to each test article concentration was 3 minutes. A positive control (0.5 μM […]) was used to confirm the sensitivity of the cells to an hERG inhibitor.

Sequence of 5-HT2A (P28223 whole entry): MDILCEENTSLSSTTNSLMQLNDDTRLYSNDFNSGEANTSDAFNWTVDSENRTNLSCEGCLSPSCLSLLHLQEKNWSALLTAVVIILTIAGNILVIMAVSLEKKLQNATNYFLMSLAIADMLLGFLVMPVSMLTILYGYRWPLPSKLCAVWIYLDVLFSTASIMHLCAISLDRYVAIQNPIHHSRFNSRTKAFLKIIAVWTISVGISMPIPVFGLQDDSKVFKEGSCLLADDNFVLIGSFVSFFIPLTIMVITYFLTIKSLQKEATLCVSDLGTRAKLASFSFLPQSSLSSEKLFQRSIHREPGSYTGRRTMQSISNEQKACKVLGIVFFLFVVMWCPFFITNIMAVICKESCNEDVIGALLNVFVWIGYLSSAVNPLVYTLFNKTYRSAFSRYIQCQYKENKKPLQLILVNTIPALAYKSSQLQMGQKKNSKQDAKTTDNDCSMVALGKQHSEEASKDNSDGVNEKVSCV
Sequence of 5-HT1D (P28221 whole entry, species assumed): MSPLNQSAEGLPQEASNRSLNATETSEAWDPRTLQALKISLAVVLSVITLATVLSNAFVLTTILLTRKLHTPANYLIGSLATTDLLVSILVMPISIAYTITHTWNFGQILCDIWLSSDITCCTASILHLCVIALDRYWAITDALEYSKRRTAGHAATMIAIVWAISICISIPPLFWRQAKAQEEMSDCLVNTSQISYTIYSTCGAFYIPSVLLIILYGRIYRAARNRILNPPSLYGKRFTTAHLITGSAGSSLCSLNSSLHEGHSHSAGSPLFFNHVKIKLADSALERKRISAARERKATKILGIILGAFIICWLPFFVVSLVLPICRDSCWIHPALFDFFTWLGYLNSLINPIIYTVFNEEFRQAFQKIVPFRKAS
Sequence of CYP3A4 (P08684 whole entry, canonical isoform): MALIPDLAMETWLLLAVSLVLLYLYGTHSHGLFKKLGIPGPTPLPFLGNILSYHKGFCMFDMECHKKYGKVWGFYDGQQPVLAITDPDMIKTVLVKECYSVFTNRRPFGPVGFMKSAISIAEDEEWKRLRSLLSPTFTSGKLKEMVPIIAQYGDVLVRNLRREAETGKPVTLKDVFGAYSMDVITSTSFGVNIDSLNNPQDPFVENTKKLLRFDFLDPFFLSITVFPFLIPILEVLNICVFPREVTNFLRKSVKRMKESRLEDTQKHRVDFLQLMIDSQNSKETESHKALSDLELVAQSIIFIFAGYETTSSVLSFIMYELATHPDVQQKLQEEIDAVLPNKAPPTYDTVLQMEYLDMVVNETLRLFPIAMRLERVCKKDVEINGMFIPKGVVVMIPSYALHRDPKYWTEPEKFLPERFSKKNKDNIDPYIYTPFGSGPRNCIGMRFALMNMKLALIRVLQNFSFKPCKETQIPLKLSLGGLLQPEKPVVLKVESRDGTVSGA
Sequence of hERG potassium channel (Q12809 whole entry): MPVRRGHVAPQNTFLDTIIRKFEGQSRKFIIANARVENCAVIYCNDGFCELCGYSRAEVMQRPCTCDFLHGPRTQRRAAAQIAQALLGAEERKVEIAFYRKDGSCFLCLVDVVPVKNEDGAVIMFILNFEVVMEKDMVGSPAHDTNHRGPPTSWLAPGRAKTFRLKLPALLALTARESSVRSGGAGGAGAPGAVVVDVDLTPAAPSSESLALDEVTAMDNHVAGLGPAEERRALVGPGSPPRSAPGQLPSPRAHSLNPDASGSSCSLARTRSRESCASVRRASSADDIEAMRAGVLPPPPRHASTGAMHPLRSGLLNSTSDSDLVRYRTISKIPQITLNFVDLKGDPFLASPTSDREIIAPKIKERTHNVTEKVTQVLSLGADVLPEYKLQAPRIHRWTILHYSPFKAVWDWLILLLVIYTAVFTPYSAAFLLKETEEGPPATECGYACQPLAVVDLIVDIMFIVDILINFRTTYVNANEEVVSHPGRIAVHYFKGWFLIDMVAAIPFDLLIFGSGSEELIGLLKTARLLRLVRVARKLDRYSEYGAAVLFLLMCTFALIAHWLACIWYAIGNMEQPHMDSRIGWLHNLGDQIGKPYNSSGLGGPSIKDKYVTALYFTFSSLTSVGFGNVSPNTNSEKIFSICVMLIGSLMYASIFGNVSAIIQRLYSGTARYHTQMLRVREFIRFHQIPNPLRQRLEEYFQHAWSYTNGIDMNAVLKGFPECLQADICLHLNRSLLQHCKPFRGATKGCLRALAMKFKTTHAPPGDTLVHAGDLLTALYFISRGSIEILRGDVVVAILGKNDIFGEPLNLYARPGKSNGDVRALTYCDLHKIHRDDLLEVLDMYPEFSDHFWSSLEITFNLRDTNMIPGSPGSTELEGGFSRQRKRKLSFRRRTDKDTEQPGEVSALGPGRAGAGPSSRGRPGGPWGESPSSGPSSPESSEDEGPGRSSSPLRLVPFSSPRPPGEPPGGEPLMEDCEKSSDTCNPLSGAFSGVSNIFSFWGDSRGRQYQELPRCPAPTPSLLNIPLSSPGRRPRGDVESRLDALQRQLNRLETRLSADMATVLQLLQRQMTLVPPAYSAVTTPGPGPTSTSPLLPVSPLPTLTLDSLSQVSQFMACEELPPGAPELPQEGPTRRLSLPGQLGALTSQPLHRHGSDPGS

## O=C1CCc2cc(OC[C@H](O)CN3CCN(c4ccc(C(F)(F)F)cc4)CC3)ccc2N1 [NP10679]
5-HT2A; pH 7.4
  functional agonism or antagonism at 5-HT2A: behaved as an antagonist
5-HT2A; pH 7.4, antagonism vs 100 nM serotonin
  IC50: 1.71 µM
[1]; 5 mg/kg IP
  infarct volume: 56±6.6 mm^3
[1]; 10 mg/kg IP
  infarct volume: 49±3.0 mm^3
[1]; IP dose prior to 60 min MCAO
  maximum infarct volume reduction: 52%
[1]; Mus musculus, 1 h, IP dose prior to 60 min MCAO, read-out: ED50 for infarct volume reduction
  ED50: 1 mg/kg
[2]
  bound to human plasma proteins: 97.7%
In vivo; iv, 3 mg/kg
  AUC(0-t): 17800 ng·h/mL
  Cmax: 2350 ng/mL
  Tmax: 0.08 h
  Vd: 1.59 L/kg
  clearance: 2.44 mL/min/kg
  half-life: 8.56 h
In vivo; oral, 10 mg/kg
  bioavailability: 75.7%
In vivo; po, 10 mg/kg
  AUC(0-inf): 49500 ng·h/mL
  AUC(0-t): 45000 ng·h/mL
  Cmax: 3600 ng/mL
  Tmax: 1 h
  half-life: 7.06 h
In vivo; male, ip, 2 mg/kg
  AUC(0-inf): 5690 ng·h/mL
  AUC(0-t): 4750 ng·h/mL
  Cmax: 581 ng/mL
  Tmax: 0.5 h
  half-life: 9.9 h
In vivo; male, ip, 5 mg/kg
  AUC(0-inf): 13100 ng·h/mL
  AUC(0-t): 11800 ng·h/mL
  Cmax: 1430 ng/mL
  Tmax: 0.5 h
  half-life: 7.5 to 9.9 h
CYP3A4
  inhibition of CYP3A4: did not inhibit
5-HT1D
  Ki: 2.29 µM
hERG potassium channel
  IC50: 0.617 µM

From patent US20240360091A1, “GLUN2B-SUBUNIT SELECTIVE ANTAGONISTS OF THE N-METHYL-D-ASPARTATE RECEPTORS WITH ENHANCED POTENCY AT ACIDIC PH” (Emory University, priority 2021, published 2024)
